This is an account of results in US11230526B1, “Cylcoalkenyl derivatives useful as agonists of the GPR120 and/or GPR40 receptors” (Janssen Pharmaceutica NV, priority 2018, dated 2022).

Common to all, as to assay type: cell-based
The target in assay [1] is T1, Human GPR120 short form (Homo sapiens, UniProt Q5NUL3).
T1 construct: expressed in transfected cells
T1 sequence (Q5NUL3 1-361): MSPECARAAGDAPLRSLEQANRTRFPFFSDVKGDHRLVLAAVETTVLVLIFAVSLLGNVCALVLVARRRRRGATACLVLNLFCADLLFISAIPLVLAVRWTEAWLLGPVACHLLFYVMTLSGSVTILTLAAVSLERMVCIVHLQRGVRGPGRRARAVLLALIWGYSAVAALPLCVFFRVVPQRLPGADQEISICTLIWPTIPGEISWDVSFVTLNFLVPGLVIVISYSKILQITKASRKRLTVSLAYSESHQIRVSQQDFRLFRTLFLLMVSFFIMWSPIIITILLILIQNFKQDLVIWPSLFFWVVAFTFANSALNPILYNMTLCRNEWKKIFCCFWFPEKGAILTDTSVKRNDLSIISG
The assay can be described thus: Human GPR120 calcium flux assay, Procedure Calcium B (4200 cells/well). The method, boiled down:
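HEK293 cells stably expressing human GPR120 (NM_001195755.1), 4200 cells/well, starved 1 h and loaded with Fluo-4 NW plus probenecid. Ligand-evoked calcium flux read on FLIPR for 300 s after a 10 s baseline. RFU = Fmax−Fmin; EC50 from four-parameter concentration-response fit.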
(In general: Calcium assays in cells follow changes in intracellular calcium, usually with a dye or a luminescent sensor.)

Assay [2] addresses T2, human GPR40 (Homo sapiens, UniProt O14842).
T2 construct: expressed in transfected cells
The assay can be described thus: GPR40 calcium flux assay, human GPR40. To be noted: HEK293 cells stably expressing GPR40; table does not say human or rat. Put shortly: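 Cells preincubated 1 h at 37° C. in HBSS, 20 mM HEPES, 0.1% BSA, then Fluo 8 calcium dye 30 min at 37° C. and 15 min at room temperature.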

The target of assay [3] is T3, long form of human GPR120 (Homo sapiens, UniProt Q5NUL3).
T3 construct: host or cells: PathHunter CHO-K1 GPR120 β-Arrestin Cell Line
T3 sequence (Q5NUL3 1-377 isoform Q5NUL3-1): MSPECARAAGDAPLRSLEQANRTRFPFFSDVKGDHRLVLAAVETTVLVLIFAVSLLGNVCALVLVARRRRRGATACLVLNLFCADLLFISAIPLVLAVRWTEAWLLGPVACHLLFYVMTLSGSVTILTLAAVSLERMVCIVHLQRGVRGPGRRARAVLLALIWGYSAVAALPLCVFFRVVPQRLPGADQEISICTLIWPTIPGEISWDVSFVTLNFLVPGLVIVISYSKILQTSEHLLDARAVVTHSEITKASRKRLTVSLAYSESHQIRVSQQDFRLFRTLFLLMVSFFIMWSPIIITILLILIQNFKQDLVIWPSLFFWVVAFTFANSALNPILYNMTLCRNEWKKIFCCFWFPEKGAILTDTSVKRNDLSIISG
T3 sequence (P32121 whole entry partner): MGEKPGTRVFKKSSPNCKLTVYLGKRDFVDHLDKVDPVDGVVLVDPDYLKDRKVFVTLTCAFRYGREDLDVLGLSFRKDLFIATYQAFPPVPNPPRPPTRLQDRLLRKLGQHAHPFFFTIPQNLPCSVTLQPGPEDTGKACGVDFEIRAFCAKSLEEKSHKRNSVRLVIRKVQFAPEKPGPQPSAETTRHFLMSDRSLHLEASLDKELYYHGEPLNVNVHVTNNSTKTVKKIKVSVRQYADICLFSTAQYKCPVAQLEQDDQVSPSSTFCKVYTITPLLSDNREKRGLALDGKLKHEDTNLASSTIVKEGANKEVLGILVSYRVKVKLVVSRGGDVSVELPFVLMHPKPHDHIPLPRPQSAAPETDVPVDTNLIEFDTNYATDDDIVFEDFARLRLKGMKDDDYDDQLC
The assay can be described thus: Human GPR120 DiscoveRx PathHunter Beta-Arrestin assay, Procedure β-arrestin A. The method, boiled down: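 PathHunter CHO-K1 cells expressing long-form human GPR120 (3000/well) were seeded overnight. They were then preincubated 60 min in HBSS with 20 mM HEPES and 0.1% BSA, pH 7.4, and exposed to compound for 90 min at 37 °C. β-Arrestin recruitment was read as β-gal complementation luminescence. EC50 came from % activity versus positive control, Hill slope fixed at 1.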

T2 sequence (O14842 whole entry): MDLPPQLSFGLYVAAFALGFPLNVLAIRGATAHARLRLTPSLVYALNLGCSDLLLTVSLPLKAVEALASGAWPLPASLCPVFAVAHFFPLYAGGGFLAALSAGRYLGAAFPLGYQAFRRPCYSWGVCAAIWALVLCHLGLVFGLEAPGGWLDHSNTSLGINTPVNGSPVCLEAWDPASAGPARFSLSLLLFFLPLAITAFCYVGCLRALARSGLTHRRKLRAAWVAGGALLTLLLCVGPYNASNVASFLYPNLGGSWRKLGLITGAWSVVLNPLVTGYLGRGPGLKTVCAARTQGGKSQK

The EC50 is the concentration needed to bring the measured effect to its halfway point. In the case of `Cc1cc(OCC2=C(c3ccc(F)cc3)CCC(F)(F)C2)ccc1CCC(=O)O` [Compound 518, 3-[4-[[5,5-difluoro-2-(4-fluorophenyl)cyclohexen-1-yl]methoxy]-2-methyl-phenyl]Propanoic Acid], the results for the EC50 in assay [1], in assay [2] and in assay [3] were 255 nM, 3750 nM and 639 nM, respectively.
Regarding `O=C(O)CCc1cc(F)c(OCC2=C(c3ccco3)CCC(F)(F)C2)c(F)c1` [Compound 569, 3-[4-[[5,5-difluoro-2-(2-furyl)cyclohexen-1-yl]methoxy]-3,5-difluoro-phenyl]Propanoic Acid], the EC50 in assay [1] is 299 nM; in assay [2], more than 5000 nM; in assay [3], 519 nM.
The corresponding values for `O=C(O)CCc1cc(F)c(OCC2=C(c3ccc(Cl)s3)CCC(F)(F)C2)c(F)c1` [Compound 543, 3-[4-[[2-(5-chloro-2-thienyl)-5,5-difluoro-cyclohexen-1-yl]methoxy]-3,5-difluoro-phenyl]Propanoic Acid] are 191 nM, more than 5000 nM and 287 nM.
The corresponding values for `CCOc1ccc(C2=C(COc3ccc(CCC(=O)O)cc3C)CCC2)cn1` [Compound 225, 3-[4-[[2-(6-ethoxy-3-pyridyl)cyclopenten-1-yl]methoxy]-3-methyl-phenyl]Propanoic Acid] are 530 nM, more than 5000 nM and 588 nM.
Regarding `O=C(O)CCc1ccc(OCC2=C(c3ccc(F)cc3)CCC(F)(F)C2)cc1C(F)(F)F` [Compound 489, 3-[4-[[5,5-difluoro-2-(4-fluorophenyl)cyclohexen-1-yl]methoxy]-2-(trifluoromethyl)phenyl]Propanoic Acid], the EC50 in assay [1] stood at 173 nM; in assay [2], 825 nM; in assay [3], 312 nM.
The corresponding values for `O=C(O)CCc1cc(F)c(OCC2=C(c3ccccc3)CCC(F)(F)C2)c(F)c1` [Compound 539, 3-[4-[(5,5-difluoro-2-phenyl-cyclohexen-1-yl)methoxy]-3,5-difluoro-phenyl]Propanoic Acid] are 192 nM, more than 5000 nM and 292 nM.
The corresponding values for `Cc1c(CCC(=O)O)cc(Br)c(OCC2=C(c3ccc(Cl)cc3)CCC2)c1Br` [Compound 68] are 517 nM, more than 5000 nM and 1940 nM.
In the case of `CCC1CCC(c2ccc(Cl)cc2)=C(COc2ccc(CCC(=O)O)c(C)c2C)C1` (stereo not drawn) [Compound 502, 3-[4-[[2-(4-chlorophenyl)-5-ethyl-cyclohexen-1-yl]methoxy]-2,3-dimethyl-phenyl]Propanoic Acid], the EC50 in assay [1] is 147 nM; in assay [2] it was more than 5000 nM; in assay [3], 192 nM.
On to `Cc1cc(CCC(=O)O)ccc1OCC1=C(c2ccc(F)cc2F)CC(F)(F)C1` [Compound 182, 3-[4-[[2-(2,4-difluorophenyl)-4,4-difluoro-cyclopenten-1-yl]methoxy]-3-methyl-phenyl]Propanoic Acid], for which the values for the 50% effective concentration (EC50) in assay [1], in assay [2] and in assay [3] were 32 nM, more than 5000 nM and 104 nM, respectively.
The corresponding values for `O=C(O)CCc1ccc(OCC2=C(c3ccc(F)cc3)CC(F)(F)C2)cc1C(F)(F)F` [Compound 188, 3-[4-[[4,4-difluoro-2-(4-fluorophenyl)cyclopenten-1-yl]methoxy]-2-(trifluoromethyl)phenyl]Propanoic Acid] are 411 nM, 142 nM and 548 nM.
The corresponding values for `COc1ncc(C2=C(COc3ccc(CCC(=O)O)cc3C)CCC2)cc1F` [Compound 222, 3-[4-[[2-(5-fluoro-6-methoxy-3-pyridyl)cyclopenten-1-yl]methoxy]-3-methyl-phenyl]Propanoic Acid] are 57 nM, more than 5000 nM and 132 nM.
The corresponding values for `Cc1cc(CCC(=O)O)ccc1OCC1=C(c2cccc(F)c2)CC(F)(F)C1` [Compound 191, 3-[4-[[4,4-difluoro-2-(3-fluorophenyl)cyclopenten-1-yl]methoxy]-3-methyl-phenyl]Propanoic Acid] are 27 nM, more than 5000 nM and 259 nM.
`Cc1ncc(C2=C(COc3ccc(CCC(=O)O)cc3C)CC(F)(F)C2)s1` [Compound 199, 3-[4-[[4,4-difluoro-2-(2-methylthiazol-5-yl)cyclopenten-1-yl]methoxy]-3-methyl-phenyl]Propanoic Acid]: the EC50 in assay [1] was determined as 210 nM; in assay [2], 1470 nM; in assay [3], 369 nM.
For `Cc1c(CCC(=O)O)ccc(OCC2=C(c3ccc(F)cc3F)CC(F)(F)C2)c1C` [Compound 173, 3-[4-[[2-(2,4-difluorophenyl)-4,4-difluoro-cyclopenten-1-yl]methoxy]-2,3-dimethyl-phenyl]Propanoic Acid], the half-maximal effective concentration (EC50) in assay [1] was 49 nM; in assay [2] it was more than 5000 nM; in assay [3], 40 nM.
On to `Cc1c(CCC(=O)O)ccc(OCC2=C(c3ccc(C#N)s3)CCC(F)(F)C2)c1C` [Compound 558, 3-[4-[[2-(5-cyano-2-thienyl)-5,5-difluoro-cyclohexen-1-yl]methoxy]-2,3-dimethyl-phenyl]Propanoic Acid], for which the EC50 in assay [1] is 381 nM; in assay [2] it was more than 5000 nM; in assay [3], 1310 nM.
Take `Cc1cc(CCC(=O)O)ccc1OCC1=C(c2ccc(F)cc2)CCC1` [Compound 42]: the EC50 in assay [1] was 61 nM; in assay [2], more than 5000 nM; in assay [3], 340 nM.
`Cc1ccc(C2=C(COc3ccc(CCC(=O)O)c(C)c3C)CC(F)(F)C2)cc1F` [Compound 172, 3-[4-[[4,4-difluoro-2-(3-fluoro-4-methyl-phenyl)cyclopenten-1-yl]methoxy]-2,3-dimethyl-phenyl]Propanoic Acid]: the EC50 in assay [1] is 42 nM; in assay [2] it was more than 5000 nM; in assay [3] it was 32 nM.
Regarding `O=C(O)CCc1cc(F)c(OCC2=C(c3ccc(F)cc3F)CCC(F)(F)C2)c(F)c1` [Compound 536, 3-[4-[[2-(2,4-difluorophenyl)-5,5-difluoro-cyclohexen-1-yl]methoxy]-3,5-difluoro-phenyl]Propanoic Acid], the values for the 50% effective concentration (EC50) in assay [1], in assay [2] and in assay [3] were 207 nM, more than 5000 nM and 215 nM, respectively.
As for `O=C(O)CCc1cc(F)c(OCC2=C(c3cccc(F)c3)CC(F)(F)C2)c(F)c1` [Compound 215, 3-[4-[[4,4-difluoro-2-(3-fluorophenyl)cyclopenten-1-yl]methoxy]-3,5-difluoro-phenyl]Propanoic Acid], the EC50 was 75 nM in assay [1], more than 5000 nM in assay [2] and 282 nM in assay [3].
As for `Cc1cc(CCC(=O)O)ccc1OCC1=C(c2ccc(F)cc2F)CCC(F)(F)C1` [Compound 535, 3-[4-[[2-(2,4-difluorophenyl)-5,5-difluoro-cyclohexen-1-yl]methoxy]-3-methyl-phenyl]Propanoic Acid], the concentration for a half-maximal effect (EC50) in assay [1] was 120 nM; in assay [2] it was more than 5000 nM; in assay [3], 108 nM.
Take `O=C(O)CCc1cc(F)c(OCC2=C(c3ccc(F)c(F)c3)CCC(F)(F)C2)c(F)c1` [Compound 533, 3-[4-[[2-(3,4-difluorophenyl)-5,5-difluoro-cyclohexen-1-yl]methoxy]-3,5-difluoro-phenyl]Propanoic Acid]: the concentration for a half-maximal effect (EC50) in assay [1] was 309 nM; in assay [2] it was more than 5000 nM; in assay [3] it was 532 nM.
